In patent US20050054845A1, “Thymosin augmentation of genetic immunization” (Rhode Island Hospital, priority 2001, published 2005):
Ends that are not written are not given here.

Columns and labels:
[1] = tested on: spleen cells stimulated with recombinant NS5; test: T-cell proliferation assay after genetic immunization; assay type: in vivo, Balb/c mice; conditions: co-administration of 5 μg thymosin α1 i.p. twice/week with 50 μg pAp031NS5 DNA vs DNA alone; all three challenge concentrations; [3H]-thymidine incorporation; FIG. 3
Description: (§1) To enhance the cellular uptake of plasmid DNA, the quadriceps muscle of Balb/c mice was injected at multiple sites with a total of 100 μL of 0.25% hupivacaine. Four days later, the plasmid constructs were injected into the same region at five different sites in a final volume of 100 μL 0.9% NaCl. Two weeks later the mice were boosted in the opposite leg with plasmid DNA. The mice were killed ten days after the last immunization. There were three groups of mice each containing five animals. Group 1=mice immunized with 100 μg mock DNA; Group 2=mice immunized with 50 μg pAp031NS5 and 50 μg mock DNA; Group 3=mice immunized with 50 μg pAp031 NS5 and 50 μg mock DNA, and received 5 μg thymosin α1 i.p. twice/week. Animals were immunized three times two weeks apart, and studies were performed ten days after the final immunization.
Mice were anesthetized with isoflurane (Aerrane, Anaquest, N.J.), blood was removed by retrobulbar puncture and spleen cells were harvested. Red blood cells were removed by incubation in […] NH4C1/0.17 mol/L Tris (pH 7.4) for 10 minutes at 37° C. […] The [^3H]-thymidine incorporation into DNA was measured after harvesting. […] Incorporation of radioactivity was corrected for background activity (Δ cpm). […]

SP2—NS5 cells = test: Cytotoxicity (CTL) 51Cr-release assay after genetic immunization; assay type: in vivo, Balb/c mice; conditions: co-administration of 5 μg thymosin α1 i.p. twice/week with 50 μg pAp031NS5 DNA vs DNA alone; L/T ratios 1:10 and 1:100; 4-hour 51Cr-release; FIG. 4
Description: as §1
Spleen cells from immunized mice were suspended in complete DMEM containing 10% FCS and 50 μmol/L 2-mercaptoethanol; the cells were then analyzed for cytotoxic activity 5 days after in vitro stimulation. […] Percent cytotoxicity was calculated as: [formula] […] Total release represents the radioactivity released after total lysis of target cells with 5% TritonX-100. […]
Spontaneous release represents the radioactivity present in medium derived from target cells only. […]

[2] = in vivo; cited from earlier work

For “thymosin α1 (SDAAVDTSSEITTKDLKEKKEVVEEAEN; ends and bridges not checked; UniProt P06454 2-29, looked up) [α thymosin]”, the “increase of CD4 proliferative response” value [1] is given as “approximately 100%”, the “increase of percent cytotoxicity” value (SP2—NS5 cells) is given as at least 100% and the “dose found to be safe for humans” value [2] is given as at most 16 mg/kg body weight/day.
